Earlier results, collected in patent publication US20230165871A1, “COMBINATION THERAPIES FOR INHIBITION OF POLO-LIKE KINASE 4” (UNIVERSITY HEALTH NETWORK, priority 2020, published 2023).

Columns and labels:
[1] = test system: cell line and patient-derived xenografts of breast and ovarian cancer; conditions: tolerable doses
[2] = clinical
cancer cell lines = conditions: via induction of apoptosis and cell cycle arrest with induction of aneuploidy
[3] = in vivo

In the case of `COc1ccc2c(c1)[C@]1(C[C@H]1c1ccc3c(/C=C/c4ccc(CN5C[C@@H](C)O[C@@H](C)C5)cc4)n[nH]c3c1)C(=O)N2` [Compound (I)], the “anti-tumour effects in xenograft models” value [1] is listed as “potent anti-tumour effects at tolerable doses”, the “major toxic effects which limit dose” value [2] is listed as “neutropenia, thrombocytopenia, fever, diarrhea and increased liver function tests” and the “anti-proliferative effects in cancer cell lines” value (cancer cell lines) is listed as “potent anti-proliferative effects”. The oral bioavailability [3] was “orally bioavailable”.
